Measured values: patent US8415469B2, “Compounds and methods for kinase modulation, and indications therefor” (Plexxikon Inc., priority 2005, dated 2013)
pIC50: −log10 of the molar value.

How the values were obtained:
Type in all cases: biochemical
Flt1 = target: T1, Flt1 (Homo sapiens, UniProt P17948); assay: AlphaScreen kinase assay, Flt1; settings: read-out: IC50, activity toward kinase Flt1
T1 construct: P1826.pETN6 BI-PTP FLT1 M799-D1165-X WT; His6 (N); made in house; host or cells: E. coli (PTP1B co-expressed)
T1 sequence (P17948 with tags, fused parts or gaps): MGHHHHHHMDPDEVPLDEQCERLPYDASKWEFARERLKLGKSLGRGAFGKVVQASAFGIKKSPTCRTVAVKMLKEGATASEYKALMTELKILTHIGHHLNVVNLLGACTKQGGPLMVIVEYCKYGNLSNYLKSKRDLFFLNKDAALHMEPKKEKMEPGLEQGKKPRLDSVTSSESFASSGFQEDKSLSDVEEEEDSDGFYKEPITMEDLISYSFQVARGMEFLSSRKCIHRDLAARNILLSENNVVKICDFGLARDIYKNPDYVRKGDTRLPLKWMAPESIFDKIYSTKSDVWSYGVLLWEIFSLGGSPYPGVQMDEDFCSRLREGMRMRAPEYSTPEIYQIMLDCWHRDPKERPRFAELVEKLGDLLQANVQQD

Abl = target: T2, Abl (Homo sapiens, UniProt P00519); assay: AlphaScreen kinase assay, Abl; settings: read-out: activity toward kinase Abl, IC50
T2 construct: P1121. pET-SPEC BI-PTP Abl G227-V515-X; His6 (N); made in house; host or cells: E. coli (PTP1B co-expressed)
T2 sequence (P00519 with tags, fused parts or gaps): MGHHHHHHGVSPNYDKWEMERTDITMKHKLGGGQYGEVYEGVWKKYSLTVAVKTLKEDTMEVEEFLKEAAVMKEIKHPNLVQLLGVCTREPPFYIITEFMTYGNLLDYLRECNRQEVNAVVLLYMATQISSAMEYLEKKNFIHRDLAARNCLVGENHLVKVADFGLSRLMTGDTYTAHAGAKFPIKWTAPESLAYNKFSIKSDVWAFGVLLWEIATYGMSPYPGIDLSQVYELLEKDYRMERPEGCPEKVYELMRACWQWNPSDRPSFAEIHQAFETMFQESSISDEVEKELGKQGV
Summary of the method: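 Biotinylated peptide substrate phosphorylation detected by AlphaScreen with phospho-specific antibody acceptor beads and streptavidin donor beads. Compounds tested as 8-point 1:3 serial dilutions from 20 mM DMSO stocks.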

Jnk1 = target: T3, Jnk1 (Homo sapiens, UniProt P45983); assay: AlphaScreen kinase assay, Jnk1; settings: read-out: IC50, activity toward kinase Jnk1
T3 construct: purchased Upstate Biotechnology
T3 sequence (P45983 whole entry): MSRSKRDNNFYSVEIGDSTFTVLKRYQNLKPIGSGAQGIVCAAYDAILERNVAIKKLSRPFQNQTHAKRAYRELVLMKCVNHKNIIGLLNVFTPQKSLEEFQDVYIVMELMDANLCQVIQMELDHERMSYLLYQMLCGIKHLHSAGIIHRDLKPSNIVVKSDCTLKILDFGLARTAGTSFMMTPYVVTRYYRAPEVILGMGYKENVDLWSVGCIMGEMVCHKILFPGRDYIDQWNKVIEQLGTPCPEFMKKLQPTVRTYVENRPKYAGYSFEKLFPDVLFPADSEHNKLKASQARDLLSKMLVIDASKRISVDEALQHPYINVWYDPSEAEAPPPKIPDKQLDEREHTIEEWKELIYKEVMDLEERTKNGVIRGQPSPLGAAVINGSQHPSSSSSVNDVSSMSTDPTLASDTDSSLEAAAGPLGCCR

Jnk3 = target: T4, Jnk3 (Homo sapiens, UniProt P53779); assay: AlphaScreen kinase assay, Jnk3; settings: read-out: IC50, activity toward kinase Jnk3
T4 construct: purchased Upstate Biotechnology
T4 sequence (P53779 whole entry): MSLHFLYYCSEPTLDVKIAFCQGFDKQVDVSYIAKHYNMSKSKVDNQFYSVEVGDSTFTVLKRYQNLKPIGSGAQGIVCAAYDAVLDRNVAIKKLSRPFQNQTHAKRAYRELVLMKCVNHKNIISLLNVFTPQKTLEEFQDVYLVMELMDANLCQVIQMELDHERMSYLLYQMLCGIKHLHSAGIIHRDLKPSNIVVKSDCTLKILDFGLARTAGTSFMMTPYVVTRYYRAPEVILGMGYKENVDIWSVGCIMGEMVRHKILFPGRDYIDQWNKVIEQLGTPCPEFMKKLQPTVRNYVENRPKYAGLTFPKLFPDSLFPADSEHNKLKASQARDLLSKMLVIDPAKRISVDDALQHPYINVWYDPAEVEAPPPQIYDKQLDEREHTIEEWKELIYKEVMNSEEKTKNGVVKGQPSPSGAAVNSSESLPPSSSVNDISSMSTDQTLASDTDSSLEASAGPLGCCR

Fak = target: T5, Fak (Homo sapiens, UniProt Q05397); assay: AlphaScreen kinase assay, Fak; settings: read-out: IC50, activity toward kinase Fak
T5 construct: P1358.pFastBacHtb FAK S411-Q686-X; His6 with pFastBacHTb leader (TEV site) (N); made in house; host or cells: Sf9 (baculovirus)
T5 sequence (Q05397 411-686): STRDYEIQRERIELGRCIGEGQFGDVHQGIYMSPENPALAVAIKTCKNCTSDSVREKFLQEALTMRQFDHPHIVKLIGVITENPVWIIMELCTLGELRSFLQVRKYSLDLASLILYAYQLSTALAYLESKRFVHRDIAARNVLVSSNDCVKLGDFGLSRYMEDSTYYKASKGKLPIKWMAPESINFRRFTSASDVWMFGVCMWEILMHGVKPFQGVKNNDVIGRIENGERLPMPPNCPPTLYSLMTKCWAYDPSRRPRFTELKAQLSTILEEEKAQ

Q: With `O=C(c1cccc(O)c1)c1c[nH]c2nccc(Cl)c12` [Compound P-0012] as the compound, how does the pIC50 (Flt1) read?
A: ≥ 5.00

Q: What about the pIC50 (Abl) of the same compound?
A: ≥ 5.00

Q: What does the source list for `CS(=O)(=O)Nc1cccc(-c2cnc3[nH]cc(C(=O)c4cccc(O)c4F)c3c2)c1` [Compound P-0038, N-{3-[3-(2-Fluoro-3-hydroxy-benzoyl)-1H-pyrrolo[2,3-b]pyridin-5-yl]-phenyl}-methanesulfonamide]?
A: pIC50 (Jnk1): ≥ 5.00; pIC50 (Flt1): ≥ 5.00; pIC50 (Jnk3): ≥ 5.00

Q: `CCCC(=O)Nc1ccc(F)c(Cc2c[nH]c3ncc(-c4cccnc4)cc23)c1F` [Compound P-1280] was tested. Which pIC50 (Jnk1) did it give?
A: ≥ 5.00

Q: And the pIC50 (Fak)?
A: ≥ 5.00

Q: What about the pIC50 (Jnk3) of the same compound?
A: ≥ 5.00

Q: With `CS(=O)(=O)c1cccc(-c2cnc3[nH]cc(C(=O)c4cccc(O)c4F)c3c2)c1` [Compound P-0026, (2-Fluoro-3-hydroxy-phenyl)-[5-(3-methanesulfonylphenyl)1H-pyrrolo[2,3-b]pyridin-3-yl]-methanone] as the compound, how does the pIC50 (Jnk1) read?
A: ≥ 5.00

Q: What about the pIC50 (Flt1) of the same compound?
A: ≥ 5.00

Q: And the pIC50 (Fak)?
A: ≥ 5.00

Q: What about the pIC50 (Jnk3) of the same compound?
A: ≥ 5.00

Q: `CCCS(=O)(=O)Nc1ccc(F)c(C(=O)c2c[nH]c3ncc(-c4ccccc4)cc23)c1F` [Compound P-0636, Propane-1-sulfonic acid [2,4-difluoro-3-(5-phenyl-1H-pyrrolo[2,3-b]pyridine-3-carbonyl)-phenyl]-amide] was tested. Which pIC50 (Jnk1) did it give?
A: ≥ 5.00

Q: And the pIC50 (Flt1)?
A: ≥ 5.00

Q: What about the pIC50 (Jnk3) of the same compound?
A: ≥ 5.00

Q: With `Oc1cccc(Cc2c[nH]c3ncc(-c4cccs4)cc23)c1F` [Compound P-0052, 2-Fluoro-3-(5-thiophen-2-yl-1H-pyrrolo[2,3-b]pyridin-3-ylmethyl)-phenol] as the compound, how does the pIC50 (Jnk1) read?
A: ≥ 5.00

Q: And the pIC50 (Jnk3)?
A: ≥ 5.00

Q: What does the source list for `O=C(c1ccc(O)cc1Cl)c1c[nH]c2ncccc12` [Compound P-0021]?
A: pIC50 (Jnk1): ≥ 5.00; pIC50 (Flt1): ≥ 5.00

Q: What does the source list for `Cc1c(O)cccc1C(=O)c1c[nH]c2ncc(-c3ccccc3)cc12` [Compound P-0016, (3-Hydroxy-2-methyl-phenyl)-(5-phenyl-1H-pyrrolo[2,3b]pyridin-3-yl)-methanone]?
A: pIC50 (Jnk1): ≥ 5.00; pIC50 (Flt1): ≥ 5.00; pIC50 (Fak): ≥ 5.00; pIC50 (Jnk3): ≥ 5.00

Q: Which results are given for `CS(=O)(=O)c1cccc(-c2cnc3[nH]cc(C(=O)c4cc(O)ccc4F)c3c2)c1` [Compound P-0008, (2-Fluoro-5-hydroxy-phenyl)-[5-(3-methanesulfonyl-phenyl)-1H-pyrrolo[2,3-b]pyridin-3-yl]-methanone]?
A: pIC50 (Jnk1): ≥ 5.00; pIC50 (Flt1): ≥ 5.00; pIC50 (Fak): ≥ 5.00; pIC50 (Jnk3): ≥ 5.00

Q: What does the source list for `Cc1c(NS(C)(=O)=O)cccc1C(=O)c1c[nH]c2ncc(-c3ccccc3)cc12` [Compound P-0082, N-[2-Methyl-3-(5-phenyl-1H-pyrrolo[2,3-b]pyridine-3-carbonyl)-phenyl]-methanesulfonamide]?
A: pIC50 (Jnk1): ≥ 5.00; pIC50 (Flt1): ≥ 5.00

Q: How did the pIC50 (Flt1) turn out when `O=C(c1cc(O)ccc1F)c1c[nH]c2ncccc12` [Compound P-0005] was run?
A: ≥ 5.00

Q: What about the pIC50 (Abl) of the same compound?
A: ≥ 5.00

Q: What does the source list for `O=C(c1cccc(O)c1F)c1c[nH]c2ncc(-c3ccccc3)cc12` [Compound P-0036, (2-fluoro-3-hydroxy-phenyl)-(5-phenyl-1H-pyrrolo[2,3-b]pyridin-3-yl)-methanone]?
A: pIC50 (Jnk1): ≥ 5.00; pIC50 (Flt1): ≥ 5.00; pIC50 (Fak): ≥ 5.00; pIC50 (Jnk3): ≥ 5.00

Q: How did the pIC50 (Jnk1) turn out when `Cc1c(O)cccc1C(=O)c1c[nH]c2ncc(-c3cccnc3)cc12` [Compound P-0006, (3-Hydroxy-2-methyl-phenyl)-(5-pyridin-3-yl-1H-pyrrolo[2,3b]pyridin-3-yl)-methanone] was run?
A: ≥ 5.00

Q: What about the pIC50 (Fak) of the same compound?
A: ≥ 5.00

Q: What about the pIC50 (Jnk3) of the same compound?
A: ≥ 5.00

Q: With `O=C(c1cccc(O)c1F)c1c[nH]c2ncc(Br)cc12` [Compound P-0067, (5-bromo-1H-pyrrolo[2,3-b]pyridin-3-yl)-(2-fluoro-3-hydroxy-phenyl)-methanone] as the compound, how does the pIC50 (Flt1) read?
A: ≥ 5.00

Q: What about the pIC50 (Fak) of the same compound?
A: ≥ 5.00

Q: `Cc1c(O)cccc1C(=O)c1c[nH]c2ncc(Br)cc12` [Compound P-0055, (5-Bromo-1H-pyrrolo[2,3-b]pyridin-3-yl)-(3-hydroxy-2-methyl-phenyl)-methanone] was tested. Which pIC50 (Flt1) did it give?
A: ≥ 5.00

Q: And the pIC50 (Fak)?
A: ≥ 5.00

Q: With `Cc1ccccc1C(=O)c1c[nH]c2nccc(-c3ccc(C(N)=O)cc3)c12` [Compound P-0017] as the compound, how does the pIC50 (Flt1) read?
A: ≥ 5.00

Q: What does the source list for `O=C(c1cccc(O)c1)c1c[nH]c2ncccc12` [Compound P-0011]?
A: pIC50 (Flt1): ≥ 5.00; pIC50 (Abl): ≥ 5.00

Q: With `O=C(c1cc(O)ccc1F)c1c[nH]c2ncc(Br)cc12` [Compound P-0068, (5-Bromo-1H-pyrrolo[2,3-b]pyridin-3-yl)-(2-fluoro-5-hydroxy-phenyl)-methanone] as the compound, how does the pIC50 (Flt1) read?
A: ≥ 5.00

Q: What about the pIC50 (Abl) of the same compound?
A: ≥ 5.00

Q: With `Oc1ccc(F)c(Cc2c[nH]c3ncc(-c4cccnc4)cc23)c1F` [Compound P-0078, 2,4-difluoro-3-(5-pyridin-3-yl-1H-pyrrolo[2,3-b]pyridin-3-ylmethyl)-phenol] as the compound, how does the pIC50 (Jnk1) read?
A: ≥ 5.00

Q: What about the pIC50 (Flt1) of the same compound?
A: ≥ 5.00

Q: And the pIC50 (Fak)?
A: ≥ 5.00

Q: What about the pIC50 (Jnk3) of the same compound?
A: ≥ 5.00

Q: With `Cc1ccc(F)cc1C(=O)c1c[nH]c2ncc(-c3ccc(C(N)=O)cc3)cc12` [Compound P-0050] as the compound, how does the pIC50 (Abl) read?
A: ≥ 5.00

Q: `O=C(c1cccc(O)c1)c1c[nH]c2ncc(-c3cccnc3)cc12` [Compound P-0048] was tested. Which pIC50 (Abl) did it give?
A: ≥ 5.00

Q: `COc1cc(OC)cc(C(=O)c2c[nH]c3ncc(-c4cccc(NS(C)(=O)=O)c4)cc23)c1` [Compound P-1426, N-{3-[3-(3,5-Dimethoxy-benzoyl)-1H-pyrrolo[2,3-b]pyridin-5-yl]-phenyl}-methanesulfonamide] was tested. Which pIC50 (Flt1) did it give?
A: ≥ 5.00

Q: And the pIC50 (Abl)?
A: ≥ 5.00

Q: With `O=C(c1cccc(O)c1F)c1c[nH]c2ncc(-c3cccnc3)cc12` [Compound P-0027, (2-Fluoro-3-hydroxy-phenyl)-(5-pyridin-3-yl-1H-pyrrolo[2,3-b]pyridin-3-yl)-methanone] as the compound, how does the pIC50 (Jnk1) read?
A: ≥ 5.00

Q: What about the pIC50 (Flt1) of the same compound?
A: ≥ 5.00

Q: What about the pIC50 (Fak) of the same compound?
A: ≥ 5.00

Q: And the pIC50 (Jnk3)?
A: ≥ 5.00

Q: With `CS(=O)(=O)c1cccc(-c2cnc3[nH]cc(C(=O)c4c(F)ccc(F)c4F)c3c2)c1` [Compound P-0102, [5-(3-Methanesulfonyl-phenyl)-1H-pyrrolo[2,3-b]pyridin-3-yl]-(2,3,6-trifluoro-phenyl)-methanone] as the compound, how does the pIC50 (Jnk1) read?
A: ≥ 5.00

Q: And the pIC50 (Fak)?
A: ≥ 5.00

Q: And the pIC50 (Jnk3)?
A: ≥ 5.00

Q: With `CCCS(=O)(=O)Nc1ccc(F)c(C(=O)c2c[nH]c3ncc(-c4cccnc4)cc23)c1F` [Compound P-0088, Propane-1-sulfonic acid [2,4-difluoro-3-(5-pyridin-3-yl-1H-pyrrolo[2,3-b]pyridine-3-carbonyl)-phenyl]-amide] as the compound, how does the pIC50 (Jnk1) read?
A: ≥ 5.00

Q: And the pIC50 (Flt1)?
A: ≥ 5.00

Q: What about the pIC50 (Fak) of the same compound?
A: ≥ 5.00

Q: What about the pIC50 (Jnk3) of the same compound?
A: ≥ 5.00

Q: How did the pIC50 (Abl) turn out when `Cc1ccc(F)cc1C(=O)c1c[nH]c2ncc(-c3cccc(NS(C)(=O)=O)c3)cc12` [Compound P-0028] was run?
A: ≥ 5.00

Q: How did the pIC50 (Jnk1) turn out when `CC(=O)Nc1cccc(-c2cnc3[nH]cc(C(=O)c4cccc(O)c4F)c3c2)c1` [Compound P-0035, N-{3-[3-(2-Fluoro-3-hydroxy-benzoyl)-1H-pyrrolo[2,3-b]pyridin-5-yl]-phenyl}-acetamide] was run?
A: ≥ 5.00

Q: And the pIC50 (Fak)?
A: ≥ 5.00

Q: What about the pIC50 (Jnk3) of the same compound?
A: ≥ 5.00

Q: With `CN(C)S(=O)(=O)Nc1ccc(F)c(Cc2c[nH]c3ncc(-c4cccnc4)cc23)c1F` [Compound P-0166] as the compound, how does the pIC50 (Flt1) read?
A: ≥ 5.00

Q: And the pIC50 (Fak)?
A: ≥ 5.00

Q: What about the pIC50 (Jnk3) of the same compound?
A: ≥ 5.00

Q: `COc1ccc(C(=O)c2c[nH]c3ncc(-c4cccc(/C=C/C(=O)O)c4)cc23)c(Cl)c1` [Compound P-0015] was tested. Which pIC50 (Jnk1) did it give?
A: ≥ 5.00

Q: What about the pIC50 (Jnk3) of the same compound?
A: ≥ 5.00

Q: How did the pIC50 (Jnk1) turn out when `Cc1c(O)cccc1C(=O)c1c[nH]c2ncc(-c3cccs3)cc12` [Compound P-0114, (3-Hydroxy-2-methyl-phenyl)-(5-thiophen-2-yl-1H-pyrrolo[2,3b]pyridin-3-yl)-methanone] was run?
A: ≥ 5.00

Q: What about the pIC50 (Flt1) of the same compound?
A: ≥ 5.00

Q: What about the pIC50 (Fak) of the same compound?
A: ≥ 5.00

Q: And the pIC50 (Jnk3)?
A: ≥ 5.00
